In ChEMBL document CHEMBL6153163, “Novel 6-Substituted-3-Phenylisoindolin-1-ones as Cbl-B Inhibitors for Treating Cancer” (ACS Med Chem Lett, 2025) one finds IC50 data, which are given here for six molecules.

SMILES strings stand for the structures.

For this assay, the target named is E3 ubiquitin-protein ligase CBL-B (Homo sapiens, UniProt Q13191). The experiment in a line: Inhibition of biotin-tagged Cbl-B (unknown origin) pre-incubated with compound for 60 min followed by Lck addition and measured after 90 mins in presence of ATP by TR-FRET based assay. For orientation: Time-resolved FRET reads energy transfer from a long-lived donor to a nearby acceptor.
Chain of E3 ubiquitin-protein ligase CBL-B (Q13191 whole entry): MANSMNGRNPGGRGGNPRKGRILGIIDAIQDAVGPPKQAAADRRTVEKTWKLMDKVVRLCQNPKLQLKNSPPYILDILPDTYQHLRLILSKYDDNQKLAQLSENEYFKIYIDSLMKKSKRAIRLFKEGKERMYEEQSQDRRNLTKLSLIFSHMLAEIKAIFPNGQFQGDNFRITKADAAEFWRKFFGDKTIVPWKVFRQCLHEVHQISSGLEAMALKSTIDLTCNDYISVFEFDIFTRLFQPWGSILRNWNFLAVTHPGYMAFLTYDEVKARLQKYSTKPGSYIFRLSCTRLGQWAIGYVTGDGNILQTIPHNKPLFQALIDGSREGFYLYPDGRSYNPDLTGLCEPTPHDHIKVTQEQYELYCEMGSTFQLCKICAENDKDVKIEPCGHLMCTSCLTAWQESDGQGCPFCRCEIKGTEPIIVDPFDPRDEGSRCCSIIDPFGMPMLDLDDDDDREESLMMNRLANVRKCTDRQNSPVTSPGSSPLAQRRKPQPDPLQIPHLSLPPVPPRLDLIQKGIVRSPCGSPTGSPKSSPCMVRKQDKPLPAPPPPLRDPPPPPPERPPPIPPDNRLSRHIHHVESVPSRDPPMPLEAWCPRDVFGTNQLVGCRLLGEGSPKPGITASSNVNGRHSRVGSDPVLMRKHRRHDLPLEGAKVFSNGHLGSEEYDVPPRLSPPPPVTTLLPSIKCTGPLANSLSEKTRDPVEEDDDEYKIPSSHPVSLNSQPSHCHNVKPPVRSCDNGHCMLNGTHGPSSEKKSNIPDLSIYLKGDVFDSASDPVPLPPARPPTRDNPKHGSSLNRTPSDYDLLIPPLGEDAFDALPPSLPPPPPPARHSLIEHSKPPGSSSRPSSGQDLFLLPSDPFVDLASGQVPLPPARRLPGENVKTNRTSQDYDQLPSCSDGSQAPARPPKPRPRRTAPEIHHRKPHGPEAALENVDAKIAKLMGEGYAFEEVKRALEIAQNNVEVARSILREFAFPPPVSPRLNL
`Cn1cnnc1[C@]1(c2cccc(N3Cc4c(Cl)cc(CNCC5CCC5)cc4C3=O)c2)C[C@H](Cl)C1`: the IC50 (as a rule, the concentration needed to halve the response being measured) was found to be 4.1 nM.

`C[C@@H](NCc1cc2c(c(C(F)F)c1)CN(c1cccc([C@H](c3nncn3C)C3CC(F)C3)c1)C2=O)C1CCC1` (stereo partly specified): the IC50 was found to be 4.2 nM.

For `CC(C)CNCc1cc(Cl)c2c(c1)C(=O)N(c1cccc([C@H](c3nncn3C)[C@H]3C[C@@H](F)C3)c1)C2`, the concentration for half-maximal inhibition (IC50) worked out at 4.3 nM.

Consider `Cn1cnnc1[C@]1(c2cccc(N3Cc4c(Cl)cc(CNCC5CCC5)cc4C3=O)c2)C[C@@H](Cl)C1`, for which the IC50 is 3.6 nM.

Regarding `CC(C)CNCc1cc(Cl)c2c(c1)C(=O)N(c1cccc([C@H](c3nncn3C)[C@H]3C[C@@H](CC#N)C3)c1)C2`, the half-maximal inhibitory concentration (IC50) worked out at 4.2 nM.

As to `C[C@@H](NCc1cc2c(c(C(F)F)c1)CN(c1cccc([C@]3(c4nncn4C)C[C@H](Cl)C3)c1)C2=O)C1CCC1`, the IC50 was 4 nM.
